According to PubChem BioAssay AID489027 (Sanford-Burnham Center for Chemical Genomics, 2010):
The source made the active and inactive calls. The rule behind the calls is not given here.

The molecules below were run against UPR counterscreen luciferase reporter, luminescence (assay: luciferase reporter activation, UPR counterscreen line – cell-based, luminescence, counter-screen for adaptive UPR activator project, dose response (AID 489027)).

| SMILES | EC50 |
| --- | --- |
| Cc1c(Cl)cccc1Nc1nc(NCCO)c2ccccc2n1 | 17 µM |
| CCCCNc1c(-c2ccc(-c3ccc(C(C)=O)cc3)c(OC)c2)nc2cc(C)ccn12 | > 80 µM (inactive) |
| CCCCN1C(=O)C(=O)c2cc(Cl)ccc21 | inactive |
| COc1ccc2[nH]c3c(c2c1)CCN1C(=O)C(CC(=O)NC/C=C(\C)CCC=C(C)C)C[C@H](C(=O)N(C(C)C)C(C)C)[C@@]31C (some centres not stated) | inactive |
| COc1ccc(-n2c(C)cc(C(=O)CCl)c2C)cc1 | 5.8 µM |
| CCC(C)Nc1nc(N)c([N+](=O)[O-])c(NC2CCCCC2)n1 (configuration not stated) | inactive |
| O=c1[nH]c(CSc2ncnc3sc(-c4ccccc4)cc23)nc2ccccc12 | > 80 µM (inactive) |
| CC(C)=CCCC1(C)C=Cc2c(c(C)cc3c2[nH]c2cc(O)ccc23)O1 (configuration not stated) | inactive |
| Cc1ccc(C)c(N=Cc2c(O)c3ccccc3oc2=O)c1 | inactive |
| CC1=C(CC/C(C)=N/NC(N)=S)C(C)(C)CCC1 | 13.9 µM |
| Cc1ccc2nc(Nc3nc(C)cc(-c4ccccc4)n3)[nH]c(=O)c2c1 | > 80 µM (inactive) |
| O=c1cc(CN2CCN(c3ccccc3)CC2)c2cc(O)c(-c3ccccc3)cc2o1 | 7 µM |
| CCCCN(CC)S(=O)(=O)c1ccc(C(=O)N=c2sc3cc(NC(C)=O)ccc3n2C)cc1 | 5.23 µM |
| COc1ccc(OCc2n(CC(=O)OC3CC(C)CCC3C(C)C)c3ccccc3[n+]2C)cc1 (configuration not stated) | > 80 µM (inactive) |
| COc1ccc(Cn2c(SCc3ccccc3C)nc3cc(OC)c(OC)cc3c2=N)cc1 | 9.65 µM |
| CN1C(=O)/C(=C/c2ccc(C(=O)NC3CCCC3)cc2)Oc2ccccc21 | > 80 µM (inactive) |
| CCOc1cc(/C=C(\C#N)c2[nH]nc(N)c2C#N)ccc1O | > 80 µM (inactive) |
| Cc1cccc(N2CCN(C(=S)Nc3ccc4nc(N5CCN(C)CC5)cc(C)c4c3)CC2C)c1 (configuration not stated) | > 80 µM (inactive) |
| CN(C)CC/C=C1\c2ccc(F)cc2Sc2cc(F)c(Cl)cc21 | > 80 µM (inactive) |
| COc1ccc2[nH]c3c(c2c1)CCN1C(=O)C(CC(=O)NC/C=C(\C)CCC=C(C)C)C[C@H](C(=O)N2CCOCC2)[C@@]31CCC1CCCC1 (some centres not stated) | 18.5 µM |
| CC1(C)C=Cc2c(c3c(c4c(=O)c(-c5ccc(O)cc5)coc24)OC(C)(C)CC3)O1 | 13.1 µM |
| Cc1ccc(Nc2nc3ccc(Cl)cc3n3cnnc23)cc1F | inactive |
| Fc1ccc(Nc2nc(NCc3ccco3)c3ccccc3n2)cc1 | > 80 µM (inactive) |
| Cc1nn(Cc2c(Cl)cccc2Cl)c(C)c1NC(=O)c1sc2ccccc2c1Cl | 18.5 µM |
| Cc1ccc2c(c1)C(=O)C(=O)N2Cc1ccc(Cl)cc1 | inactive |
| CCCCCn1c(N)c(-c2nc3ccccc3o2)c2c([N+](=O)[O-])nn(CC)c(=O)c21 | inactive |
| CCc1ccc2[nH]c3nc(SCc4nnc(-c5ccc(C)cc5)o4)nnc3c2c1 | inactive |
| Cc1ccc(Cl)cc1N1CCN(Cc2nc3c(c(=O)[nH]c(=O)n3C)n2CCc2ccccc2)CC1 | 16.7 µM |

The remaining lines, values ahead:

| EC50 | SMILES |
| --- | --- |
| 12.7 µM | CN(C)S(=O)(=O)c1ccc(N2CCCC2)c(C(=O)Nc2nc3ccccc3s2)c1 |
| > 80 µM (inactive) | O=C(Nc1ccc2nc3n(c(=O)c2c1)CCCCC3)c1ccccc1Cl |
| inactive | O=C(N/N=C/c1ccc(Cl)cc1)c1sccc1OCc1ccc(F)cc1 |
| inactive | CCCCCC(=O)Nc1ccc(C(=O)N/N=C/c2ccc([N+](=O)[O-])cc2)cc1 |
| 5.3 µM | CCOc1ccccc1-n1c(SCC(=O)Nc2ccc(CC)cc2)nc2n[nH]c(C)c2c1=N |
| 6.61 µM | CN1/C(=C\C(=O)COC(=O)c2ccc(O)c(O)c2)C(C)(C)c2ccccc21 |
| 11.9 µM | O=c1[nH]c(-c2ccc(-c3cccc(Cl)c3)o2)nc2ccccc12 |
| > 80 µM (inactive) | COc1cc(NC(=O)c2ccco2)c(C(=O)OCC(=O)c2c[nH]c3ccccc23)cc1OC |
| 14.3 µM | O=C(COC(=O)/C=C/c1cn(-c2ccccc2)nc1-c1cccnc1)Nc1ccc(Cl)cc1Cl |
| inactive | CCOC(=O)C1=C(C)n2c(s/c(=C/c3cccc([N+](=O)[O-])c3)c2=O)=NC1c1ccc(O)c(OC)c1 (configuration not stated) |
| > 80 µM (inactive) | C=CCOc1ccc(/C=N/N2C(=O)C(CC(=O)Nc3ccc(F)cc3F)SC2=NC)cc1 (configuration not stated) |
| > 80 µM (inactive) | Cc1cc(NC(=O)c2cc(-c3ccncc3)nc3ccccc23)ccc1Br |
| > 80 µM (inactive) | Cc1ccc(S(=O)(=O)Cc2cc(F)c([N+](=O)[O-])cc2[N+](=O)[O-])cc1 |
| inactive | COc1ccc(/C=N/NC(=O)c2cccc([N+](=O)[O-])c2)c2ccccc12 |
| 3.77 µM | COc1cc(/C=C(/C#N)c2nc3ccccc3[nH]2)ccc1OCC(=O)Nc1ccccc1C |
| > 80 µM (inactive) | Cc1cccc(NC(=O)c2nc[nH]c2C(=O)Nc2ccccc2[N+](=O)[O-])c1 |
| > 80 µM (inactive) | COc1ccc2nc(/C(C#N)=C\c3ccc(Oc4ccc([N+](=O)[O-])cn4)cc3)[nH]c2c1 |
| inactive | O=C(Nc1ccc(NC(=O)c2sc3ccccc3c2Cl)cc1Cl)c1ccco1 |
| inactive | O=C(Oc1ccc(F)cc1C(=O)/C=C/c1cccs1)c1cccc([N+](=O)[O-])c1 |
